Experiment [1] addresses T1, human liver Glucokinase (GK) (Homo sapiens, UniProt P35557).
T1 construct: (His)6; made in house; host or cells: Escherichia coli
T1 sequence (P35557 1-466 isoform P35557-2): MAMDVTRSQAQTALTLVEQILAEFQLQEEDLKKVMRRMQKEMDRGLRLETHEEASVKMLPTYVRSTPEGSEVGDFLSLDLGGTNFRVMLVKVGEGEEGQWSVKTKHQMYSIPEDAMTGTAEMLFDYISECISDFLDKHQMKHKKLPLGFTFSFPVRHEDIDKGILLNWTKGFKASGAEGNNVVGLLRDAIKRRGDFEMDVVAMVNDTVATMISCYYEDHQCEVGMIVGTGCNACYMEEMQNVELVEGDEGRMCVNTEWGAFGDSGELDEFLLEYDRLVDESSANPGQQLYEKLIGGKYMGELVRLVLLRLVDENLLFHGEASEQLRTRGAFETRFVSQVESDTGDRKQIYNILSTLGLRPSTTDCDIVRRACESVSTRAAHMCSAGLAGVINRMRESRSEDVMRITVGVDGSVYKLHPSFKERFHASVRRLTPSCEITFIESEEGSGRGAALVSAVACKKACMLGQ
Description: Glucokinase enzyme assay, liver GK. Format: biochemical. As to conditions: percentage increase in GK activity above vehicle control, compound 50 μM, 12 mM glucose. An excerpt:
(§1) An enzymatic Glucokinase (GK) assay using purified recombinant human liver/pancreas enzyme was used to evaluate the effects of potential small molecule modulators.
(§2) In this assay, GK catalyzes glucose phosphorylation in the presence of ATP. The product of this reaction, glucose-6-phosphate, was then oxidized by an excess of glucose-6-phosphate dehydrogenase to produce gluconate-6-phosphate with concomitant reduction of nicotinamide adenine dinucleotide (NAD). […] Human GK (Liver/Pancreas) was expressed in Escherichia coli as a (His) 6-tagged fusion protein and was purified by metal chelate affinity chromatography. The assay was performed in a final incubation volume of 80 μl in a 96-well clear low UV absorption plates. The incubation mixture consisted of 25 mM HEPES, 2 mM MgSO4, 1 mM dithiothreotol (DTT), 1 mg/mL bovine serum albumin (BSA), 1 mM ATP, 1 mM NAD, and 12 mM glucose, 10 units per mL glucose-6-phosphate dehydrogenase, and +/−300 ng per mL GK. For determination of the affinity (Km) and Vmax, different concentrations of glucose ranging from 0.5 mM to 40 mM were used in the assay; see Grimsby, J., Sarabu, R.; Grippo, J. F.; et. al. Science 2003, 301, 370-373. Production of reduced NAD (Nicotinamide Adenine Dinucleotide) was measured as changes in absorption at 340 nm in 96-well plate reader (Envision model # 2101 Multilabel Plate reader). % Activation @ 50 μM was calculated as the percentage increase in GK activity above the vehicle control with the effective concentration of the compound being 50 μM. EC50% (μM) was calculated as the effective concentration of the compound that produces 50% activation above the vehicle control, and EC100% (μM) was calculated as the effective concentration of the compound that produces 100% activation above the vehicle control.

The target of experiment [2] is T2, human pancreas Glucokinase (GK) (Homo sapiens, UniProt P35557).
T2 construct: (His)6; made in house; host or cells: Escherichia coli
T2 sequence (P35557 1-465): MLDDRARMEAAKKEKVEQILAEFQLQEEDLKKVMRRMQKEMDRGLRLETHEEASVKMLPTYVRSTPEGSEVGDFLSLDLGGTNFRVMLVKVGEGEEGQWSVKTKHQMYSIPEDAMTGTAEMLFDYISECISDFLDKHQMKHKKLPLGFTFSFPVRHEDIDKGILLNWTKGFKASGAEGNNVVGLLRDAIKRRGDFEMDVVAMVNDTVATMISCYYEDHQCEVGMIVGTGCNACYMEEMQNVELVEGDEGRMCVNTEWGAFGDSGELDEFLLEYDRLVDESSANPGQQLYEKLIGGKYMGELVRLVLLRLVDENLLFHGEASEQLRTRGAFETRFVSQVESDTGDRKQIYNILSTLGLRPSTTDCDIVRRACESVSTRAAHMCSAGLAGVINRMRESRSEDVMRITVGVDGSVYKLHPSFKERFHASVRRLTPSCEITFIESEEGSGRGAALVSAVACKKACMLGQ
Description: Glucokinase enzyme assay, pancreas GK. The class given is biochemical. As to conditions: percentage increase in GK activity above vehicle control, compound 50 μM, 12 mM glucose.
Excerpt: as §1, §2

`COc1ccc([C@H](C)N2C(=O)C3=C(CCCC3)[C@@H]2SCC(=O)Nc2ccccn2)cc1` (single isomer, unassigned) [Compound 6]: the activation at 50 µM in experiment [1] came to 21%; in experiment [2], 79%.

Source of the values: patent US20070117808A1, “Substituted Cycloalkylpyrrolones As Allosteric Modulators Of Glucokinase” (priority 2005, published 2007).
